What all share (type): biochemical
In test [1] the target is T1, Collagenase (Homo sapiens, UniProt P03956).
T1 sequence (P03956 100-469): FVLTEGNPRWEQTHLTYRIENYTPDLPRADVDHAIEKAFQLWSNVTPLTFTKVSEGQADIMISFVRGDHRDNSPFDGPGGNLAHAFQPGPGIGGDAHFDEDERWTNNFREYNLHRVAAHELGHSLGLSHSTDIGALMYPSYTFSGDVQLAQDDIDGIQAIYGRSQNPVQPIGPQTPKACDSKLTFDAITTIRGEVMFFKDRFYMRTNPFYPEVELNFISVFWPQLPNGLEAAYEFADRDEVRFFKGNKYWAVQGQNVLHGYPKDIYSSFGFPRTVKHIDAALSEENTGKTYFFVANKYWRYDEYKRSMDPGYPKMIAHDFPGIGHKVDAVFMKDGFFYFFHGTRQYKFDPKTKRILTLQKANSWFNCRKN
The test can be described thus: Enzyme inhibition assay (fluorimetric, peptide substrate Dnp-Pro-Leu-Gly-Trp-Ala-D-Arg-NH2), collagenase. The note with it: Ki (app) assumed to approximate to the true Ki; pH 7.5, overnight. The protocol:
(§1) The activity and selectivity of the compounds of the invention may be determined as described below. All enzyme assays to determine Ki values were performed using the peptide substrate […]. [M. Sharon Stock and Rober D. Gray, JBC 264, 4277-81, 1989]. The enzymes cleave at the Gly-Leu bond which can be followed fluorimetrically by measuring the increase in Trp fluorescence emission associated with the removal of the quenching dinitrophenol (Dnp) group. […] Brij 35 at either room temperature or 37° C. depending on the enzyme. The reaction is stopped by adjusting the pH to 4 using 0.1M sodium acetate buffer and the fluorescence read at an excitation wavelength of 280 nm and emission wavelength of 346 nm. […] For stromelysin and collagenase, Ki (app) was assumed to approximate to the true Ki as [S]<<Km for the substrate hydrolysis. For gelatinase the Ki was determined by performing the analyses at several substrate concentrations. A plot of Ki (app) vs. [S] then gave the true Ki as the value of the y-axis intercept.

The target of test [2] is Stromelysin-1 (Homo sapiens, UniProt P08254). Nature of the test: Enzyme inhibition assay (fluorimetric, peptide substrate Dnp-Pro-Leu-Gly-Trp-Ala-D-Arg-NH2), stromelysin. The settings on record: Ki (app) assumed to approximate to the true Ki; pH 7.5, overnight. The protocol:
as §1

Test [3] concerns the target T2, Gelatinase 72KD (Homo sapiens, UniProt P08253).
T2 sequence (P08253 110-660): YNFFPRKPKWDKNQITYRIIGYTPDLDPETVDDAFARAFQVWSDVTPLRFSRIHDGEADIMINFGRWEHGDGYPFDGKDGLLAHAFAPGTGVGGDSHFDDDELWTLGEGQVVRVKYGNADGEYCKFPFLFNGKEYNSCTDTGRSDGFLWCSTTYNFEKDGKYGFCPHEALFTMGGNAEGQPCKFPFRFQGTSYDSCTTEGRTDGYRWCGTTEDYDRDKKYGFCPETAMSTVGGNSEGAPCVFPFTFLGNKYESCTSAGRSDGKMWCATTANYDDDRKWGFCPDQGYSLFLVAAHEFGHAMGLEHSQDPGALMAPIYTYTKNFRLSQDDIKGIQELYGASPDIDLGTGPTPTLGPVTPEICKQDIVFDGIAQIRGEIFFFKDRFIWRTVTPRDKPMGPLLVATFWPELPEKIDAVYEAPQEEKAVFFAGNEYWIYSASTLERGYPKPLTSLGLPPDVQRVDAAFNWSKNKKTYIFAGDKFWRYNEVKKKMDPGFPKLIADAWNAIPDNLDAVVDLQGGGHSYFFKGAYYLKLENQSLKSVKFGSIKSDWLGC
Nature of the test: Enzyme inhibition assay (fluorimetric, peptide substrate Dnp-Pro-Leu-Gly-Trp-Ala-D-Arg-NH2), gelatinase. The note with it: true Ki from plot of Ki (app) vs. [S]; pH 7.5, overnight. The protocol:
as §1

Chain of Stromelysin-1 (P08254 100-477, species assumed): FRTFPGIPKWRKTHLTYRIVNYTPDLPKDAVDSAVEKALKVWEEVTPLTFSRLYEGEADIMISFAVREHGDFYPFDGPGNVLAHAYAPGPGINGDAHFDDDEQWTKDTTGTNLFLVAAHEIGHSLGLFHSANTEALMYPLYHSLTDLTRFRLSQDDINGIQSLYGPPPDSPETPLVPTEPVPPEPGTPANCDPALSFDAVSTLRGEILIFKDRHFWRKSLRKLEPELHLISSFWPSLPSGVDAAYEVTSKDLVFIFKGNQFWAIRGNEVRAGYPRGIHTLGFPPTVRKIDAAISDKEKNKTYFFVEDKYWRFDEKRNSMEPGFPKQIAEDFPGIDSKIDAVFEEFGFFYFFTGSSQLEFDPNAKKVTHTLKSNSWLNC

For the compound `Cc1ccc(CCC[C@H](CC(=O)O)C(=O)N[C@@H](CC2CCCCC2)C(=O)NCCNS(=O)(=O)N2CCOCC2)cc1` [Example 2, {4-Hydroxy-2-(R)-[3-(4-methylphenyl)propyl]succinyl}-L-β-cyclohexylalanine-N-[(2-morpholinesulphonylamino)ethyl]amide], the values for the Ki in test [1], in test [2] and in test [3] were 100000 nM, 802 nM and 1.43 nM, respectively.

In the case of `Cc1ccc(CCC[C@H](CC(=O)NO)C(=O)N[C@@H](CC2CCCCC2)C(=O)NCCNS(=O)(=O)N2CCOCC2)cc1` [Example 3, {4-(N-Hydroxyamino)-2(R)-[3-(4-methylphenyl)propyl]succinyl}-L-β-cyclohexylalanine-N-[(2-morpholinesulphonylamino)ethyl]amide], the Ki in test [1] stood at 385 nM; in test [2] it was 2.75 nM.

As to `O=C(C[C@@H](CCCc1ccc(Cl)cc1)C(=O)N[C@@H](CC1CCCCC1)C(=O)NCCNS(=O)(=O)N1CCOCC1)NO` [Example 4, {4-(N-Hydroxyamino)-2(R)-[3-(4-chlorophenyl)propyl]succinyl}-L-β-cyclohexylalanine-N-[(2-morpholinesulphonylamino)ethyl]amide], the Ki worked out at 302 nM in test [1], 1.73 nM in test [2] and 0.014 nM in test [3].

For `Cc1ccc(CCC[C@H](CC(=O)NO)C(=O)N[C@@H](CC2=CCCCC2)C(=O)NCCNS(=O)(=O)N2CCOCC2)cc1` [Example 5, {4-(N-Hydroxyamino)-2(R)-[3-(4-methylphenyl)propyl]succinyl}-L-β-(1-cyclohexenylalanine)-N-[(2-morpholinesphonylamino)ethyl]amide], the Ki in test [1] was found to be 554 nM; in test [2], 18.7 nM; in test [3], 0.047 nM.

In the case of `Cc1ccc(CCC[C@H](CC(=O)NO)C(=O)N[C@@H](CC2CCCCC2)C(=O)NCCCNS(=O)(=O)N(C)C)cc1` [Example 6], the Ki in test [1] was 800 nM; in test [2], 6.8 nM.

Source of the values: patent US5530128A, “N-sulphonylamino derivatives of dipetide compounds as metalloproteinase inhibitors” (Celltech Therapeutics Limited, priority 1992, dated 1996).
